From patent US20080226565A1, “Anticariogenic Proteins & Peptides & Saccharides” (priority 2004, published 2008)

Columns and labels:
[1] = system: microaerophilic bacteria isolated from the oral cavity; test: Susceptibility (MIC), agar dilution, microaerophilic bacteria; assay type: cell-based
Description: (§1) The investigations included more than hundred strains isolated from the oral cavity: : anaerobes, microaerophilic bacteria, aerobes, Streptococcus spp. and yeast like fungi. The microorganisms were isolated from saliva, mucosal membrane, gingival pockets and caries decay. The susceptibility (MIC) of bacteria and yeastlike fungi were determined by means of plate dilution technique in agar.
(§2) The investigated samples were dissolved in sterile distilled water (immediately before the experiment) to obtain the following concentrations: 3.5, 1.7, 0.8, 0.4 and 0.2 mg/ml and were added into appropriate agar. The plates were inoculated using a Steers multipoint inoculator. Inoculum contained 10^6 CFU/spot. […]
(§3) Anaerobes. The susceptibility of bacteria was determined by means of the agar dilution methods with Brucella agar supplemented with 5% defibrinated sheep's blood, menadione and hemin. […] The susceptibility of bacteria was determined by means of the agar dilution methods with Brucella agar supplemented with 5% sheep's blood. […] The susceptibility of bacteria was determined by means of the agar dilution methods with Mueller-Hinton agar supplemented with 5% sheep's blood. […] The susceptibility to investigated samples was determined by means of the plate dilution technique in Mueller-Hinton agar. […]

[2] = In-vivo: tooth samples treated with peptide, 12 hours in the oral cavity, then acetic acid, Knoop hardness; parameters: species or system human; conditions: for B: Average initial hardness of the tooth surface (st. dev.): before treatment
Description: In another experiment, 126 sterilized tooth samples where treated with a variety of peptides, fixed to the device and positioned after the lower jaw in the oral cavity of 5 volunteers. The device remained in the oral cavity for a period of 12 hours after which the teeth where removed, cleaned and subjected to a drop of acetic acid (0.1N, 30 min., 37° C). Subsequently the acid was removed, the teeth where cleaned and the hardness was measured (Knoop method). The depth of penetration increased 8.82 μm, 5.40 μm, 5.32 μm and 3.77 μm respectively for teeth treated as blanco with 4.2% casein phosphopeptide e-polylysine copolymer, 7.5% phosvitin and with 4.2% bisphosphonylated e-polylysine. The p-values are respectively 0.000, 0.000 and 0.004 for casein phosphopeptide e-polylysine copolymer, bisphosphonylated e-polylysine and phosvitin.
Tooth samples have been cut in horizontal slices (thickness: 0.3 to 1 mm) with a Leitz 1600 tooth cutter with horizontal cutting blade; the slices are cut manually (with a bore) into small tooth samples that contain a small part of the original tooth surface. The tooth sample is positioned in a small plastic tube, that has been cut from a long plastic tube with 6 mm external diameter. The length of the tube is 3 to 6 mm. The inner part of the tube is filled with a polymer that hardens under light (Photoclearfil Bright; Kuraray). The tooth sample is positioned in the soft polymer inside the tube, in such a way that the original tooth surface is just surfacing above the tube. Finally the polymer is hardened with a light source. The tooth surface is polished with Struers silicon carbid paper (800-4000) and the hardness is measured 5 times on each of the samples under the Letiz Wetzlar microscope (weight on needle: 50 p). Tooth samples with a maximum average depth of penetration of 43 μm are retained for use in the oral cavity.
The tooth-samples are fixed to a device that has been described in the chapter “Description of the invention ( chapter: In-vivo experiments)” and the device is positioned in the oral cavity after the lower jaw.
A drop from a solution containing either, e-polylysine, CPP, bisphoshphonylated e-polylysine, casein phosphopeptide epsilon-polylysine copolymer or partially hydrolysed phosvitin has been positioned at the surface of tooth samples for a period of 30 minutes at 37 C.; the drop was removed and the procedure was repeated once more. All solutions contained also 3.1% CaCl2.2H2O and 1.7% KH2PO4 (except for the one containing e-polylysine).
The tooth surface was cleaned with a soft paper towel until it was visibly clean. Four such tooth samples where fixed to the device and located in the oral cavity behind the lower jaw. They resided in the oral cavity for a period of 12 hours (only to be removed during eating). Subsequently, they where removed, cleaned and the tooth surface was treated with a drop of acetic acid (0.1N, 30 min., 37° C.); the acid was removed, the tooth was washed with deionized water and the hardness was evaluated.
A: type of peptide ingredient in the solution (% on a w/w basis versus water). (*): the teeth where submerged (30 min.) in a saliva batch and dried afterwards on air, before they where treated with a solution that contained bisphosphonylated e-polylysine. B: Average initial hardness of the tooth surface; μm (st. dev.) C: Average hardness after treatment, after residing in the oral cavity and treatment with acid D: The average change in hardness (C−B) E: p-value (against blanco) of the Mann-Whitney statistical test F: the number of tooth samples that where treated with a specific formulation; hardness on each of the tooth samples was measured five times and an average value was calculated; most often 4 tooth samples per person; 5 volunteers participated to the experiment; the 132 tooth samples where randomized into groups (of 4 teeth) with the same average hardness value.

Streptococcus spp. = test: Susceptibility (MIC), agar dilution, Streptococcus spp.; assay type: cell-based; conditions: 6 from 9 Streptococcus strains
Description: as §1, §2, §3

[3] = 4.2% w/w solution, 12 hours oral cavity, acetic acid 0.1N 30 min

Row | Substance | inhibitory concentration ([1]; 17 from 31 microaerophilic strains) [mg/mL] | C: Average hardness after treatment, after residing in the oral cavity and treatment with acid [2, 3] | D: average change in hardness (C−B) [2, 3] [μm] | B: Average initial hardness of the tooth surface (st. dev.) ([2]; group for 4.2% solution) | D: average change in hardness (C−B) ([2]; 7.8% w/w solution) [μm] | C: Average hardness after treatment, after residing in the oral cavity and treatment with acid ([2]; 7.8% w/w solution, 12 hours oral cavity, acid) | B: Average initial hardness of the tooth surface (st. dev.) ([2]; group for 7.8% solution) | concentration inhibiting growth (MIC) (Streptococcus spp.) [µg/mL] | mic value ([1]; 12 strains from 31 microaerophilic strains) [mg/mL] | D: average change in hardness (C−B) ([2]; 4.2% solution (*): teeth submerged 30 min in saliva before treatment) [μm] | C: Average hardness after treatment, after residing in the oral cavity and treatment with acid ([2]; 4.2% solution (*): teeth submerged 30 min in saliva before treatment, 12 hours oral cavity, acid) | B: Average initial hardness of the tooth surface (st. dev.) ([2]; group for 4.2% solution (*))
1 | Epsilon-polylysine (elys; e-polylysine) [Product 6] | 0.2 | 47.81 (3.67) μm | 6.93 | 40.88 (0.91) μm | – | – | – | – | – | – | – | –
2 | casein phosphopeptide epsilon-polylysine copolymer [(CPP x elys)n] | – | 46.21 (1.94) μm | 5.40 | 40.81 (0.68) μm | 2.41 | 42.92 (1.43) μm | 40.51 (1.55) μm | – | – | – | – | –
3 | bisphosphonylated epsilon-polylysine [bisphosphonylated e-polylysine] | – | 44.29 (2.08) μm | 3.77 | 40.52 (0.62) μm | – | – | – | 1700 | 0.2 | 3.29 | 44.05 (2.92) μm | 40.76 (0.73) μm
